Test results reported in patent US10729738B2, “Hindered disulfide drug conjugates” (priority 2015, dated 2020).
Blank lines part the entries; values can stand above or below the compound they belong to. *1 amine or outer side, *2 acyl side, *3 side chain or, on linkers, in order; H or OH if unused. Where a SMILES comes first, the peptide text is derived from it. [ ]: non-standard residue; d: D form. The star is where a group is joined. Dolaproine = CO[C@@H]([C@@H]1CCCN1)[C@@H](C)C(=O)O; X15 = C[C@H](COC(=O)*)SSc1ccc([N+](=O)[O-])cn1; Dil = CC[C@H](C)[C@H](NC)[C@@H](CC(=O)O)OC; X12 = Cn1c(C(=O)O)cnc1SSC(C)(C)COC(=O)*; X5 = CC(C)(COC(=O)*)SSc1nc2ncccc2[nH]1; PABC = O=C(OCc1ccc(N[*:1])cc1)[*:2]; X2 = C[C@@H](N*)[C@@H](O)c1ccccc1; X9 = CC(C)(COC(=O)*)SSc1nnn[nH]1; X20 = Cn1cnnc1SSC(C)(C)COC(=O)*; NMeV = CN[C@H](C(=O)O)C(C)C

What was measured:
[1] = test system: calf DNA; test: DNA binding potential (incubation with calf DNA, extraction, LC/MS); details: 1 mg/mL calf DNA, 37° C., 1 hour
Description: For DNA binding analysis, compounds 7 and 8 were incubated at […] with 1 mg/mL calf DNA for 1 hour in 0.5 mL of 10 mM Bis-Tris, pH 7.1 at 37° C. Ethyl acetate (1 mL) was used to extract the reaction mixture twice by vortex (20 seconds) and centrifugation (4 min at 5,000×g). The combined organic extracts were concentrated under vacuum and reconstituted in 0.15 mL of 1:1 water/methanol before injection on LC/MS. The samples were analyzed by LC/MS/UV on Sciex TripleTOF 5600 on a Hypersil Gold C18 column (100×2.1, […], Thermo Scientific) in a positive ESI ion mode. The column was eluted by a gradient of buffer A (0.1% formic acid) to buffer B (0.1% formic acid in acetonitrile), 5% B 0-0.5 min, 5-25% B 0.5-8 min, 25-75% B 8-13 min, and 75-95% B 13-13.5 min, 95% B 13.5-14.5 min, 95-5% B 14.5-15 min at 0.4 mL/min.

[2] = test system: target-expressing cell lines; details: target-expressing cell lines (Hartley 2011); cited from earlier work
[3] = test system: SK-BR-3 cells; test: In vitro IC50 of MMAE ADCs, Cell Titer-Glo, SK-BR-3; type: cell-based; details: 5 days
Description: (§1) The in vitro IC50 of ADC compounds MMAE 1, MMAE 2, MMAE 5 and MMAE 6 against SK-BR-3 and KPL-4 cells was evaluated. The cells were plated in 96-well plates (SK-BR-3 at 5000 cell per well; KPL-4 at 1500 cells […]) in cysteine free RPMI+10% FBS+20 mM glutamine+50 pM cysteine media and allowed to adhere overnight. Media was then removed and was replaced with fresh media containing different ADC concentrations. Cell viability was measured 5 days after drug administration using Cell Titer-Glo.

[4] = test system: KPL-4 cells; test: In vitro IC50 of MMAE ADCs, Cell Titer-Glo, KPL-4; type: cell-based; details: 5 days
Description: as §1

[5] = In vitro disulfide cleavage and immolation by incubation with cysteine or glutathione (LC/MS); type: physicochemical; details: for Percentage of all products: pH 7.0, 37° C.
Description: In a first phase of the experiment, disulfide cleavage and immolation by incubation with cysteine and glutathione—with the thiol concentrations mimic those in plasma and cancer cells—was investigated using unconjugated small molecule model systems with para-nitro-pyridyl disulfide-containing linker drug analogs 1, 2 and 11 below. In particular, cleavage and immolation was evaluated in vitro by incubation at […] with cysteine ([…] or 200 μM) or glutathione (GSH, 4 mM) in 100 mM Tris buffer pH 7.0 containing 5% methanol at 37° C. Aliquots were taken at specified time points and the samples were analyzed by LC/MS on Sciex TripleTOF 5600 on a Hypersil Gold C18 column (100×2.1, […], Thermo Scientific). The column was eluted by a gradient of buffer A (0.1% formic acid in 10 mM ammonium acetate) to buffer B (0.1% formic acid in 10 mM ammonium acetate in 90% acetonitrile), 5% B 0-0.5 min, 5-25% B 0.5-8 min, 25-75% B 8-13 min, and 75-95% B 13-13.5 min, 95% B 13.5-14.5 min, 95-5% B 14.5-15 min at 0.4 mL/min. Under these conditions, para-nitropyridyl thiol was eluted at 5.3 min. All products (compounds 1, 2, 11, 3a, 3b, 4a, 4b, 12a, 12 b, 6, 7, 13 and 8) were separated and characterized by LC/MS/MS in a positive ESI ion mode. All analytes had the protonated molecular MH^+ as the major species with little source fragmentation. Full scan accurate mass peak areas were used to estimate relative abundance of each component and the disappearance of 1, 2, and 11 estimated relative full scan peak areas was consistent with that estimated based on the relative abundance compared to time 0 by MS or UV. The results are reported in Table 15 below and the analytical results are presented in Table 16 below where “Cmpd” refers to compound, “RT” refers to retention time in minutes, and “Calc. Mass” refers to calculated mass. The relative abundance of disulfide cleavage and immolation products over time were evaluated and are disclosed in FIGS. 12A to 12C, 13A to 13C, 14A to 14C and 15A to 15C where the products were monitored by LC/MS from incubations of linker drugs 1, 2, and 11 at pH 7.0 and 37° C. in the presence of: 0.2 mM cysteine (FIGS. 12A, 12B and 12C); 0.03 mM cysteine (FIGS. 13A, 13B and 13C); 4 mM glutathione (FIGS. 14A, 14B and 14C); and 0.03 mM glutathione (FIGS. 15A, 15B and 15C). In FIGS. 12A to 12C, 13A to 13C, 14A to 14C and 15A to 15C, compound reference numbers 1, 2, 3a, 3b, 4a, 4b, 6, 7, 8, 11, 12a, 12b and 13 correspond to the structures below.

[6] = pKa of thiol compounds
[7] = target: human serum albumin Cys-34 (Homo sapiens, UniProt P02768); test: Conjugation of activated disulfide-MMAE molecules to human serum albumin (Conjugate Ratio, LC/MS); details: disulfide MMAE compound at 10 molar equivalents relative to HSA, 75 mM Tris pH 8.5, ~16 hours at room temperature
human serum albumin Cys-34, sequence (P02768 25-609): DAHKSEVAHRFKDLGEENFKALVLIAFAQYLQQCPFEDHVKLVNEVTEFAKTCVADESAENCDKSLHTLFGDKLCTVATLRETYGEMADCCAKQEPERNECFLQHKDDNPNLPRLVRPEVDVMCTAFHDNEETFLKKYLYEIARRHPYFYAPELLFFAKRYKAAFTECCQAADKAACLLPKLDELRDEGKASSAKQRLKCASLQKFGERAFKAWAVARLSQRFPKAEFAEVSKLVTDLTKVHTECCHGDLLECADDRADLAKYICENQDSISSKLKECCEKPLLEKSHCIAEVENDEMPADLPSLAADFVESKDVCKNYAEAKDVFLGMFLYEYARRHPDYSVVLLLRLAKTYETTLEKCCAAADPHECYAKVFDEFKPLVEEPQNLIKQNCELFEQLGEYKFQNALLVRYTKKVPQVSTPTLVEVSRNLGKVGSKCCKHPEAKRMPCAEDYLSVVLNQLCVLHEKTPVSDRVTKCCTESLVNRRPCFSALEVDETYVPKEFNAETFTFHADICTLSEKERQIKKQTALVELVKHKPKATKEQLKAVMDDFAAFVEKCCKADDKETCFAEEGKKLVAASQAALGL
Description: In a first evaluation, MMAE was conjugated to human serum albumin (HSA). […] This Cys residue is blocked as a mixed disulfide with Cys or glutathione, preventing complete conjugation of other molecules to this residue. […] Conjugate reactions were analyzed by LC/MS. The extent of the expected MMAE-HSA conjugate formed during the reaction is represented by the “Conjugate Ratio”, measured by dividing the abundance of the MS peak for the MMAE-HSA conjugate by the sum total abundance of all peaks observed. The ideal value for the Conjugate Ratio is 1.0. The results are reported in table 31 below wherein the wavy line for the leaving group represents the point of attachment to the disulfide bond, and “HSA CR” refers to human serum albumin conjugate ratio.

[8] = target: T1, penetratin (AntP) peptide (Drosophila melanogaster, UniProt P02833); test: Conjugation of activated disulfide-MMAE molecules to penetratin (AntP) peptide (% Product); details: peptide 25 uM, disulfide MMAE 5 equivalents, 75 mM Tris pH 8.5 and 10% DMF, ~16 hours at room temperature, UV peak area
T1 construct: C-terminal amide (CONH2); made in house; host or cells: chemical synthesis (Fmoc solid-phase peptide synthesis)
Description: In a second evaluation, MMAE was conjugated to penetratin (AntP) peptide. The AntP peptide, with sequence H2N-[…]-CONH2 (SEQ ID NO:1) bearing a free Cys thiol at the C-terminus, was synthesized via standard Fmoc solid-phase peptide synthesis methods. This peptide was conjugated at a concentration of 25 uM to disulfide MMAE molecules with varying leaving groups (5 equivalents) in a buffered solution composed of 75 mM Tris, pH 8.5 and 10% DMF for ˜16 hours at room temperature. Extent of the reaction was measured by dividing the integrated area for the UV peak of the MMAE-AntP conjugate by the sum of all peaks (“% Product”). The ideal value for % Product is 100%. The results are reported in table 31 below wherein the wavy line for the leaving group represent the point of attachment to the disulfide bond, and “AntP % P” refers to penetratin (AntP) peptide % product.

SMILES: C=C1C[C@H]2C=Nc3cc(OCCCCCOc4cc5c(cc4OC)C(=O)N4CC(=C)C[C@H]4C=N5)c(OC)cc3C(=O)N2C1 [Compound 8]
DNA binding [1]: quickly binds to DNA | Fraction unextractable after incubation in DNA solution [1]: approximately 94% | IC50 [2]: ~0.05 nM

SMILES: CC[C@H](C)[C@@H]([C@@H](CC(=O)N1CCC[C@H]1[C@H](OC)[C@@H](C)C(=O)N[C@H](C)[C@@H](O)c1ccccc1)OC)N(C)C(=O)[C@@H](NC(=O)[C@H](C(C)C)N(C)C(=O)OCc1ccc(NC(=O)OC[C@@H](C)SSc2ccc([N+](=O)[O-])cn2)cc1)C(C)C [MMAE 6] ({X15-PABC}-[NMeV]V[Dil][Dolaproine]-X2)
SK-BR-3 IC50 [3]: 0.78 µg/mL | KPL-4 IC50 [4]: 0.411 µg/mL

SMILES: C=C1C[C@H]2C=Nc3cc(OCCCCCOc4cc5c(cc4OC)C(=O)N4CC(=C)C[C@H]4[C@H](O)N5C(=O)OCC4(S)CC4)c(OC)cc3C(=O)N2C1 [Compound 7]
Percentage of all products ([5]; 30 μM cysteine, 1 h): 5.1% | Percentage of all products ([5]; 30 μM cysteine, 4 h): 9.7% | Percentage of all products ([5]; 30 μM cysteine, 24 h): 11.6% | Percentage of all products ([5]; 200 μM cysteine, 1 h): 44.7% | Percentage of all products ([5]; 200 μM cysteine, 4 h): 73.6% | Percentage of all products ([5]; 200 μM cysteine, 24 h): 87.3% | Percentage of all products ([5]; 4 mM GSH, 1 h): 80.8% | Percentage of all products ([5]; 4 mM GSH, 4 h): 89.7% | Percentage of all products ([5]; 4 mM GSH, 24 h): 92.3% | Immolation of thiol intermediate ([5]; incubation with cysteine or glutathione): did not appreciably immolate and appeared to be stable | DNA binding [1]: does not bind to DNA | pKa [6]: 4.7 to 4.8

SMILES: CC[C@H](C)[C@@H]([C@@H](CC(=O)N1CCC[C@H]1[C@H](OC)[C@@H](C)C(=O)N[C@H](C)[C@@H](O)c1ccccc1)OC)N(C)C(=O)[C@@H](NC(=O)[C@H](C(C)C)N(C)C(=O)OCC(C)(C)SSc1ncc(C(=O)O)n1C)C(C)C (X12-[NMeV]V[Dil][Dolaproine]-X2)
HAS CR (HSA Conjugation Ratio) [7]: 0.55 | AntP % P (penetratin (AntP) peptide % product) [8]: 4%

SMILES: CC[C@H](C)[C@@H]([C@@H](CC(=O)N1CCC[C@H]1[C@H](OC)[C@@H](C)C(=O)N[C@H](C)[C@@H](O)c1ccccc1)OC)N(C)C(=O)[C@@H](NC(=O)[C@H](C(C)C)N(C)C(=O)OCC(C)(C)SSc1nc2ncccc2[nH]1)C(C)C (X5-[NMeV]V[Dil][Dolaproine]-X2)
HAS CR (HSA Conjugation Ratio) [7]: 0.84 | AntP % P (penetratin (AntP) peptide % product) [8]: 12%

pKa [6]: 4.7 to 4.8
SMILES: O=[N+]([O-])c1ccc(S)nc1 [Compound 5, para-nitropyridyl thiol]

SMILES: CC[C@H](C)[C@@H]([C@@H](CC(=O)N1CCC[C@H]1[C@H](OC)[C@@H](C)C(=O)N[C@H](C)[C@@H](O)c1ccccc1)OC)N(C)C(=O)[C@@H](NC(=O)[C@H](C(C)C)N(C)C(=O)OCC(C)(C)SSc1nnn[nH]1)C(C)C (X9-[NMeV]V[Dil][Dolaproine]-X2)
HAS CR (HSA Conjugation Ratio) [7]: 0.09 | AntP % P (penetratin (AntP) peptide % product) [8]: 1.9%

SMILES: CC[C@H](C)[C@@H]([C@@H](CC(=O)N1CCC[C@H]1[C@H](OC)[C@@H](C)C(=O)N[C@H](C)[C@@H](O)c1ccccc1)OC)N(C)C(=O)[C@@H](NC(=O)[C@H](C(C)C)N(C)C(=O)OCC(C)(C)SSc1nncn1C)C(C)C (X20-[NMeV]V[Dil][Dolaproine]-X2)
HAS CR (HSA Conjugation Ratio) [7]: 0.66 | AntP % P (penetratin (AntP) peptide % product) [8]: 17%
